Some test systems named below: A498 renal; BT-549 breast; HOP-62 NSCLC; HS 578T breast; KM12 colon; NCI-H522 lung; NCI/ADR-RES ovarian; OVCAR-3 ovarian; SK-MEL-2 melanoma; SK-MEL-5 melanoma.
Assay in all cases: NCI-60 cell line screen, 48 h

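All cell lines were grown in 96-well plates and treated with compound for 48 hours. Definition used: TGI = concentration required for complete inhibition of growth.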

This note sets out measurements from PubChem BioAssay (NCI).

As to `CCOC(=O)C1CCCCN1C(=O)Cc1c[nH]c2ccccc12` (configuration not stated), the TGI with A498 renal, in the test on BT-549 breast, in the test on HOP-62 NSCLC, with HS 578T breast, with KM12 colon and in the test with NCI-H522 lung was > 100 µM throughout. The TGI with NCI/ADR-RES ovarian, in the test with OVCAR-3 ovarian and in the test with SK-MEL-2 melanoma was > 100 µM throughout.
As to `COc1cccc(C(=O)C#Cc2cnc(OC)nc2OC)c1`, the TGI in the test on A498 renal is 22.1 µM; in the test on BT-549 breast, 2.63 µM; with HOP-62 NSCLC it was 47.8 µM; in the test on HS 578T breast, > 30.2 µM; with KM12 colon, 18.7 µM; in the test on NCI-H522 lung, 0.762 µM. In addition, the TGI in the test on NCI/ADR-RES ovarian was 4.83 µM; with OVCAR-3 ovarian, 3.62 µM; in the test with SK-MEL-2 melanoma, 3.95 µM; in the test on SK-MEL-5 melanoma, 3.06 µM.
With `CC1(C)CC(=O)c2c(nc3c4c([nH]c(-c5ccc(Br)cc5)c24)CC(C)(C)C3)C1`, the TGI is 86.7 µM in the test on A498 renal; > 100 µM with BT-549 breast; > 100 µM in the test with HOP-62 NSCLC; > 100 µM with HS 578T breast; > 100 µM in the test on KM12 colon; > 100 µM with NCI-H522 lung. The TGI in the test on NCI/ADR-RES ovarian, in the test on OVCAR-3 ovarian, with SK-MEL-2 melanoma and with SK-MEL-5 melanoma was > 100 µM each time.
`CC(C)(C)OC(=O)NCCCCC(N)NC(=O)c1ccccc1` (configuration not stated): the TGI in the test on A498 renal, in the test with BT-549 breast, with HOP-62 NSCLC, with HS 578T breast, in the test on KM12 colon and with NCI-H522 lung was > 100 µM each time. For the same molecule, the TGI in the test on NCI/ADR-RES ovarian, in the test on OVCAR-3 ovarian, in the test on SK-MEL-2 melanoma and in the test with SK-MEL-5 melanoma was > 100 µM each time.
Turning to `c1ccc(N=C2c3ccsc3C(=Nc3ccccc3)c3ccsc32)cc1`, the TGI amounted to 14.8 µM in the test on A498 renal; 3.6 µM in the test with BT-549 breast; 3 µM with HOP-62 NSCLC; 6.04 µM in the test on HS 578T breast; 6.35 µM with KM12 colon; 4.34 µM with NCI-H522 lung. Further, the TGI with NCI/ADR-RES ovarian came to 14.4 µM; in the test on OVCAR-3 ovarian, 6.55 µM; in the test with SK-MEL-2 melanoma, 3.38 µM; with SK-MEL-5 melanoma, 2.35 µM.
In the case of `C[N+](C)(C)c1ncnc2c1ncn2C1CCCO1` (configuration not stated), the TGI with A498 renal, with BT-549 breast, in the test with HOP-62 NSCLC, with HS 578T breast, with KM12 colon and with NCI-H522 lung was > 100 µM each time. Moreover, the TGI in the test with NCI/ADR-RES ovarian, with OVCAR-3 ovarian, in the test on SK-MEL-2 melanoma and in the test on SK-MEL-5 melanoma was > 100 µM throughout.
As for `OC(c1cccnc1Cl)c1nc2ccccc2c2ccnc(Cl)c12` (configuration not stated), the TGI in the test with A498 renal was 17.5 µM; in the test on BT-549 breast, > 100 µM; in the test with HOP-62 NSCLC it was 15.3 µM; in the test with HS 578T breast it was 9.4 µM; in the test with KM12 colon, > 100 µM; in the test on NCI-H522 lung, 5.92 µM. For the same molecule, the TGI with NCI/ADR-RES ovarian, in the test on OVCAR-3 ovarian, in the test with SK-MEL-2 melanoma and in the test on SK-MEL-5 melanoma was > 100 µM each time.
Take `CSc1c(C#N)c(N)n(-c2ccc(Cl)cc2)c(=O)c1C#N`: the TGI with A498 renal, in the test on BT-549 breast, in the test with HS 578T breast, in the test on KM12 colon, with NCI-H522 lung and in the test with NCI/ADR-RES ovarian was > 100 µM each time. The TGI in the test with OVCAR-3 ovarian, in the test on SK-MEL-2 melanoma and in the test on SK-MEL-5 melanoma was > 100 µM in each case.
`COc1cc(Nc2nc3cc(C(F)(F)F)ccc3n3cccc23)cc(OC)c1OC`: the TGI in the test on A498 renal, in the test with BT-549 breast, with HOP-62 NSCLC, with HS 578T breast, with NCI-H522 lung and in the test on NCI/ADR-RES ovarian was > 100 µM in each case. The TGI in the test with OVCAR-3 ovarian, in the test with SK-MEL-2 melanoma and in the test with SK-MEL-5 melanoma was > 100 µM throughout.
With `CN(C)CCc1c2c(nc3ccccc13)C(=O)c1cccnc1C2=O`, the TGI worked out at 1.72 µM in the test on A498 renal; 1.71 µM in the test with BT-549 breast; 4.15 µM with HS 578T breast; 1.38 µM in the test on KM12 colon; 0.654 µM with NCI-H522 lung; 1.03 µM in the test on NCI/ADR-RES ovarian. The TGI is 1.34 µM in the test on OVCAR-3 ovarian, 4.21 µM with SK-MEL-2 melanoma and 0.672 µM in the test with SK-MEL-5 melanoma.
For the molecule `CCN(CCN(CC)C(=O)Nc1ccccc1)C(=O)Nc1ccccc1`, the TGI in the test with A498 renal, with BT-549 breast, with HOP-62 NSCLC, with HS 578T breast, in the test with NCI-H522 lung and in the test on NCI/ADR-RES ovarian was > 100 µM in each case. For the same molecule, the TGI in the test with SK-MEL-2 melanoma and in the test on SK-MEL-5 melanoma was > 100 µM throughout.
Take `CC(C)(CCC(C)(C)N1OC1c1ccccc1)N1OC1c1ccccc1` (configuration not stated): the TGI in the test with A498 renal is > 100 µM; in the test on BT-549 breast, > 100 µM; with HS 578T breast, > 100 µM; with KM12 colon, > 100 µM; in the test with NCI-H522 lung it was 22.2 µM; in the test on NCI/ADR-RES ovarian, > 100 µM. Further, the TGI with SK-MEL-2 melanoma was > 100 µM; with SK-MEL-5 melanoma, 37.8 µM.
